According to ChEMBL document CHEMBL6078695, “Design, synthesis, and biological evaluations of 5-aryl-pyrazole-3-carboxamide derivatives as selective CB2 receptor agonists for the treatment of colitis” (Eur J Med Chem, 2025):
Activity calls are given as the source filed them. The calls are words filed in the database; no cut-off is given here.

What was measured:
Cannabinoid receptor 2 [1] = target: T1, Cannabinoid receptor 2 (Homo sapiens, UniProt P34972); test: Antagonist activity at human CB2 receptor expressed in CHO-K1 cells co-transfected with human Galpha16 assessed as intracellular calcium flux; type: functional, cell-based
Cannabinoid receptor 2 [2] = target: T1, Cannabinoid receptor 2; test: Agonist activity at human CB2 receptor expressed in CHO-K1 cells co-transfected with human Galpha16 assessed as intracellular calcium flux; type: functional, cell-based
Cannabinoid receptor 1 [3] = target: T2, Cannabinoid receptor 1 (Homo sapiens, UniProt P21554); test: Antagonist activity at human CB1 receptor expressed in CHO-K1 cells co-transfected with human Galpha16 assessed as intracellular calcium flux; type: functional, cell-based
Cannabinoid receptor 1 [4] = target: T2, Cannabinoid receptor 1; test: Agonist activity at human CB1 receptor expressed in CHO-K1 cells co-transfected with human Galpha16 assessed as intracellular calcium flux; type: functional, cell-based
Cannabinoid receptor 2 [5] = target: T1, Cannabinoid receptor 2; test: Partial agonist activity at human CB2 receptor expressed in CHO-K1 cells co-transfected with human Galpha16 assessed as intracellular calcium flux at 10 uM; type: functional, cell-based
Cannabinoid receptor 2 [6] = target: T1, Cannabinoid receptor 2; test: Agonist activity at human CB2 receptor expressed in CHO-K1 cells co-transfected with human Galpha16 assessed as intracellular calcium flux at 10 uM relative to control; type: functional, cell-based; conditions: filed as agonist
Cannabinoid receptor 2 [7] = target: T1, Cannabinoid receptor 2; test: Agonist activity at human CB2 receptor expressed in CHO-K1 cells co-transfected with human Galpha16 assessed as intracellular calcium flux at 10 uM; type: functional, cell-based
Mus musculus [8] = test: Antiinflammatory activity against DSS-induced colitis in po dosed C57/BL6 mouse model assessed as suppression of IL-6 expression administered for 9 days by ELISA analysis; type: functional, organism-based; conditions: dose 10-30 mg/kg, time 9.0 day
Mus musculus [9] = test: Antiinflammatory activity against DSS-induced colitis C57/BL6 mouse model assessed as reduction in disease activity index (DAI) score at 10 to 30 mg/kg, po administered for 9 days; type: functional, organism-based; conditions: dose 10-30 mg/kg, time 9.0 day
Mus musculus [10] = test: Antiinflammatory activity against DSS-induced colitis in po dosed C57/BL6 mouse model assessed as suppression of IL-1beta expression administered for 9 days by ELISA analysis; type: functional, organism-based; conditions: dose 10-30 mg/kg, time 9.0 day
Mus musculus [11] = test: Antiinflammatory activity against DSS-induced colitis C57/BL6 mouse model assessed as disruption of epithelial layer in colon at 10 to 30 mg/kg, po administered for 9 days by H and E staining based analysis; type: functional, organism-based; conditions: dose 10-30 mg/kg, time 9.0 day
Cannabinoid receptor 2 [12] = target: T1, Cannabinoid receptor 2; test: Antagonist activity at human CB2 receptor expressed in CHO cells co-transfected with human Galpha16 assessed as increase in intracellular calcium mobilization; type: functional, cell-based; conditions: filed as antagonist
Mus musculus [13] = test: Antiinflammatory activity against DSS-induced colitis C57/BL6 mouse model assessed as delay in diarrhoea development at 10 to 30 mg/kg, po administered for 9 days; type: functional, organism-based; conditions: dose 10-30 mg/kg, time 9.0 day
Cannabinoid receptor 2 [14] = target: T1, Cannabinoid receptor 2; test: Agonist activity at human CB2 receptor expressed in HEK293 cells assessed as forskolin-stimulated cAMP accumulation preincubated with compound for 10 mins followed by forskolin induction and measured after 2 hrs by HTRF analysis; type: functional, cell-based
Cannabinoid receptor 2 [15] = target: T1, Cannabinoid receptor 2; test: Agonist activity at human CB2 receptor expressed in CHO cells assessed as reduction in ERK1/2 phosphorylation at 10 uM by Western blot analysis; type: functional, cell-based
Mus musculus [16] = test: Antiinflammatory activity against DSS-induced colitis C57/BL6 mouse model assessed as loss of goblet cells at 10 to 30 mg/kg, po administered for 9 days by H and E staining based analysis; type: functional, organism-based; conditions: dose 10-30 mg/kg, time 9.0 day
Mus musculus [17] = test: Antiinflammatory activity against DSS-induced colitis C57/BL6 mouse model assessed as delay in hematochezia development at 10 to 30 mg/kg, po administered for 9 days; type: functional, organism-based; conditions: dose 10-30 mg/kg, time 9.0 day
Mus musculus [18] = test: Antiinflammatory activity against DSS-induced colitis C57/BL6 mouse model assessed as reduction in body weight loss at 10 to 30 mg/kg, po administered for 9 days; type: functional, organism-based; conditions: dose 10-30 mg/kg, time 9.0 day
Mus musculus [19] = test: Antiinflammatory activity against DSS-induced colitis in po dosed C57/BL6 mouse model assessed as suppression of TNF-alpha expression administered for 9 days by ELISA analysis; type: functional, organism-based; conditions: dose 10-30 mg/kg, time 9.0 day
Cannabinoid receptor 2 [20] = target: T1, Cannabinoid receptor 2; test: Antagonist activity at human CB2 receptor expressed in CHO cells co-transfected with human Galpha16 assessed as receptor desensitization by measuring reduction in calcium response; type: functional, cell-based; conditions: filed as antagonist
Mus musculus [21] = test: Antiinflammatory activity against DSS-induced colitis C57/BL6 mouse model assessed as reduction in inflammatory infiltration at 10 to 30 mg/kg, po administered for 9 days by H and E staining based analysis; type: functional, organism-based; conditions: dose 10-30 mg/kg, time 9.0 day
Cannabinoid receptor 2 [22] = target: T1, Cannabinoid receptor 2; test: Antagonist activity at human CB2 receptor expressed in CHO cells co-transfected with human Galpha16 assessed as increase in intracellular calcium mobilization at 10 uM; type: functional, cell-based; conditions: filed as antagonist
Cannabinoid receptor 2 [23] = target: T1, Cannabinoid receptor 2; test: Antagonist activity at human CB2 receptor expressed in CHO cells co-transfected with human Galpha16 assessed as increase in intracellular calcium mobilization at 10 uM preincubated with compound for 10 mins followed by HBSS buffer wash and re-treated with compound at same concentration; type: functional, cell-based; conditions: filed as antagonist
Cannabinoid receptor 2 [24] = target: T1, Cannabinoid receptor 2; test: Antagonist activity at human CB2 receptor expressed in CHO cells co-transfected with human Galpha16 assessed as receptor desensitization by measuring reduction in calcium response at 10 uM; type: functional, cell-based; conditions: filed as antagonist
Cannabinoid receptor 1 [25] = target: T2, Cannabinoid receptor 1; test: Agonist activity at human CB1 receptor expressed in CHO-K1 cells co-transfected with human Galpha16 assessed as intracellular calcium flux at 10 uM relative to control; type: functional, cell-based
Cannabinoid receptor 1 [26] = target: T2, Cannabinoid receptor 1; test: Partial agonist activity at human CB1 receptor expressed in CHO-K1 cells co-transfected with human Galpha16 assessed as intracellular calcium flux at 10 uM relative to control; type: functional, cell-based; conditions: filed as partial agonist
Cannabinoid receptor 2 [27] = target: T1, Cannabinoid receptor 2; test: Partial agonist activity at human CB2 receptor expressed in CHO-K1 cells co-transfected with human Galpha16 assessed as intracellular calcium flux; type: functional, cell-based
Cannabinoid receptor 2 [28] = target: T1, Cannabinoid receptor 2; test: Partial agonist activity at human CB2 receptor expressed in CHO-K1 cells co-transfected with human Galpha16 assessed as intracellular calcium flux at 10 uM relative to control; type: functional, cell-based; conditions: filed as partial agonist
Cannabinoid receptor 1 [29] = target: T2, Cannabinoid receptor 1; test: Partial agonist activity at human CB1 receptor expressed in CHO-K1 cells co-transfected with human Galpha16 assessed as intracellular calcium flux; type: functional, cell-based

T2 sequence (P21554 whole entry): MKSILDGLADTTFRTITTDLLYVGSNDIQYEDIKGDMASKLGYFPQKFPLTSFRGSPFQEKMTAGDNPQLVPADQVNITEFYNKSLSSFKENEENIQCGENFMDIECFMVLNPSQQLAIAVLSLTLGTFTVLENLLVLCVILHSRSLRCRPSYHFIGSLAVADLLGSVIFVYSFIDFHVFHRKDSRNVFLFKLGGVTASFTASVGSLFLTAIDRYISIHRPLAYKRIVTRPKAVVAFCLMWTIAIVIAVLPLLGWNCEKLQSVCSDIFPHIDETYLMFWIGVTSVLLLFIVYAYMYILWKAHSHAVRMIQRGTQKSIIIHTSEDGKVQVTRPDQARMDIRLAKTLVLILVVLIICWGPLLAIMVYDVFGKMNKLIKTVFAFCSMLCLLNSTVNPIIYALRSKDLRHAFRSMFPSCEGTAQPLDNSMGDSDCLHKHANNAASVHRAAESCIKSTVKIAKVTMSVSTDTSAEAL
T1 sequence (P34972 whole entry): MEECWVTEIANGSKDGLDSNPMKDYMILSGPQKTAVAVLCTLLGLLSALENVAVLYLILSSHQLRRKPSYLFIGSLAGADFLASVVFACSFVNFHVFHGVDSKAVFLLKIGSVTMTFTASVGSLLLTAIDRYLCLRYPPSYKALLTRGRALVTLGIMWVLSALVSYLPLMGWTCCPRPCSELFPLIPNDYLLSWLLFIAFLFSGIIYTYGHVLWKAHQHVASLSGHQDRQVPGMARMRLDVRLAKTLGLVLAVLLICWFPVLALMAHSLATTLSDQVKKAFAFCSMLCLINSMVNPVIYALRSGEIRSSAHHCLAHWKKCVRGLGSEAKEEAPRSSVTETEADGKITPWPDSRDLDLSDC

Compound	IC50 (Cannabinoid receptor 2 [1])	EC50 (Cannabinoid receptor 2 [2])	IC50 (Cannabinoid receptor 1 [3])	EC50 (Cannabinoid receptor 1 [4])	Emax (Cannabinoid receptor 2 [6])	also measured
COc1ccc(C(=O)c2c(C)n(CCN3CCOCC3)c3cc(I)ccc23)cc1	0.179 µM	> 100 µM				
CCCCCn1nc(C(=O)NC(C)(C)CO)cc1-c1nccn1C	> 100 µM	> 100 µM	> 100 µM	> 100 µM		
CCCCCn1nc(C(=O)NC(C)(C)CO)cc1-c1nccs1	> 100 µM	> 100 µM	> 100 µM	> 100 µM		
Cc1ccc(-n2nc(C(=O)NC(C)(C)CO)cc2-c2cccs2)cc1	> 100 µM	1.04 µM	> 100 µM	> 100 µM	45%	Activity (Cannabinoid receptor 2 [5]; filed as partial agonist): Weak_effect
CCCCCn1nc(C(=O)NC(C)(C)CO)cc1-c1cc(C)cs1	0.0685 µM	> 100 µM	> 100 µM	> 100 µM		
COCCn1nc(C(=O)NC(C)(C)CO)cc1-c1cccs1	> 100 µM	0.128 µM	> 100 µM	> 100 µM	46%	Activity (Cannabinoid receptor 2 [7]; filed as agonist): Active
CCCCCn1nc(C(=O)NC(C)(C)CO)cc1-c1cccn1C		0.0479 µM	> 100 µM	> 100 µM	90%	
CC(C)(CO)NC(=O)c1cc(-c2cccs2)n(-c2ccc(F)cc2)n1	> 100 µM	0.852 µM	> 100 µM	> 100 µM	48%	Activity (Cannabinoid receptor 2 [5]; filed as partial agonist): Weak_effect
CCCCn1nc(C(=O)NC(C)(C)CO)cc1-c1ccn(C)c1	> 100 µM	> 100 µM	> 100 µM	> 100 µM		Activity (Cannabinoid receptor 2 [7]): inactive
CCCCCn1nc(C(=O)NC(C)(C)CO)cc1-c1ccsc1	> 100 µM	0.141 µM	> 100 µM	> 100 µM	50%	
CCCCCn1nc(C(=O)NC(C)(C)CO)cc1-c1ccc(C)s1	0.0282 µM	> 100 µM	> 100 µM	> 100 µM		
CCCCCn1nc(C(=O)NC(C)(C)CO)cc1-c1ccc(Cl)s1	0.0322 µM	> 100 µM	> 100 µM	> 100 µM		
CCCCn1nc(C(=O)NC(C)(C)CO)cc1-c1cccs1	> 100 µM	0.0162 µM	> 100 µM	> 100 µM	90%	Activity (Mus musculus [8]): Dose-dependent-effect; Activity (Mus musculus [9]): Active; Activity (Mus musculus [10]): Dose-dependent-effect; Activity (Mus musculus [11]): Active; Activity (Cannabinoid receptor 2 [12]): Active; Activity (Mus musculus [13]): Active; EC50 (Cannabinoid receptor 2 [14]): 0.0151 µM; Activity (Cannabinoid receptor 2 [15]): inactive; Activity (Mus musculus [16]): Active; Activity (Mus musculus [17]): Active; Activity (Mus musculus [18]): Active; Activity (Mus musculus [19]): Dose-dependent-effect; Activity (Cannabinoid receptor 2 [20]): Active; Activity (Mus musculus [21]): Active
CCCCCCC(C)(C)c1ccc([C@@H]2C[C@H](C)CC[C@H]2CCCO)c(O)c1	> 100 µM	0.035 µM			100%	Activity (Cannabinoid receptor 2 [22]): Active; Activity (Cannabinoid receptor 2 [23]): Active; Activity (Cannabinoid receptor 2 [24]): Active; EC50 (Cannabinoid receptor 2 [14]): 0.0163 µM; Activity (Cannabinoid receptor 2 [15]): inactive; Emax (Cannabinoid receptor 1 [25]; filed as agonist): 100%
CCCCCn1nc(C(=O)NC(C)(C)CO)cc1-c1cccs1		0.0088 µM	> 100 µM	0.593 µM	95%	Emax (Cannabinoid receptor 1 [25]; filed as agonist): 70%
CCCCCCn1nc(C(=O)NC(C)(C)CO)cc1-c1cccs1	> 100 µM	0.0195 µM	> 100 µM	> 100 µM	72%	

Compound	IC50 (Cannabinoid receptor 2 [1])	EC50 (Cannabinoid receptor 2 [2])	IC50 (Cannabinoid receptor 1 [3])	EC50 (Cannabinoid receptor 1 [4])	Emax (Cannabinoid receptor 2 [6])	also measured
CCCCCn1nc(C(=O)NC(C)(C)CO)cc1-c1sccc1C	> 100 µM	0.274 µM	> 100 µM	0.424 µM	85%	Emax (Cannabinoid receptor 1 [25]): 30%
CCCCCn1nc(-c2cccn2C)cc1C(=O)NC(C)(C)CO		> 100 µM	> 100 µM	> 100 µM		
CCCCn1nc(C(=O)NC(C)(C)CO)cc1-c1cccn1C(C)C	> 100 µM	> 100 µM	> 100 µM	> 100 µM		Activity (Cannabinoid receptor 2 [5]; filed as partial agonist): Weak_effect; Activity (Cannabinoid receptor 2 [7]): inactive
CC(C)(CO)NC(=O)c1cc(-c2cccs2)n(-c2ccc(Cl)cc2)n1	> 100 µM	0.788 µM	> 100 µM	> 100 µM	82%	Activity (Cannabinoid receptor 2 [5]; filed as partial agonist): Weak_effect
CCCCCn1nc(C(=O)NC(C)(C)CO)cc1-c1ccco1			> 100 µM			Emax (Cannabinoid receptor 1 [26]): 80%; EC50 (Cannabinoid receptor 2 [27]): 0.056 µM; Emax (Cannabinoid receptor 2 [28]): 50%; EC50 (Cannabinoid receptor 1 [29]): 0.957 µM
CCCCn1nc(C(=O)NC(C)(C)CO)cc1-c1cncs1	> 100 µM	> 100 µM	> 100 µM	> 100 µM		Activity (Cannabinoid receptor 2 [7]): inactive
COc1ccc(-n2nc(C(=O)NC(C)(C)CO)cc2-c2cccs2)cc1	> 100 µM	> 100 µM	> 100 µM	> 100 µM		Activity (Cannabinoid receptor 2 [5]): inactive
CCCCCn1nc(-c2ccco2)cc1C(=O)NC(C)(C)CO		> 100 µM	> 100 µM	> 100 µM		
CCCCCn1nc(-c2cccs2)cc1C(=O)NC(C)(C)CO		> 100 µM	> 100 µM	> 100 µM		
CCCCCn1nc(-c2cccn2CC)cc1C(=O)NC(C)(C)CO		> 100 µM	> 100 µM	> 100 µM		
CCCCCn1nc(C(=O)NC(C)(C)CO)cc1-c1ccnn1C	> 100 µM	> 100 µM	> 100 µM	> 100 µM		
CCCCCn1nc(C(=O)NC(C)(C)CO)cc1-c1cccn1CC	> 100 µM	0.0077 µM	> 100 µM	0.0375 µM	76%	Emax (Cannabinoid receptor 1 [25]; filed as agonist): 90%
CCCCCn1nc(C(=O)NC(C)(C)CO)cc1-c1cc(Cl)cs1	0.0346 µM	> 100 µM	> 100 µM	> 100 µM		
CC(C)(CO)NC(=O)c1cc(-c2cccs2)n(CC2CC2)n1	> 100 µM	0.174 µM	> 100 µM	> 100 µM	55%	Activity (Cannabinoid receptor 2 [7]; filed as agonist): Active
CCCCCn1nc(C(=O)NC(C)(C)CO)cc1-c1sccc1Cl	> 100 µM	0.0215 µM	> 100 µM	> 100 µM	76%	
